# Assay: in vitro
# Conditions: human, hela cells, % viability
SMILES,"viability at 28.5 h, 10 µM (bulk resorufin, single well)","viability at 28.5 h, 10 µM"
NS(=O)(=O)c1ccc(N/C=C2\C(=O)NC(=O)N(Cc3ccccc3Cl)C2=O)cc1 [CBK265586],92.3%,
COc1c(C)cccc1C(=O)NC(=S)Nc1sc2c(c1C(N)=O)CCC2 [CBK265587],,84.4%
O=C(OCC#CCSc1nnc(-c2ccccc2)o1)c1ccc([N+](=O)[O-])cc1 [CBK265588],,107%
Cc1ccc(S(=O)(=O)c2cc3c(=O)n4ccccc4nc3n(CCCN3CCOCC3)c2=N)cc1 [CBK265590],,101%
O=C(CSc1ncn(-c2ccccc2)n1)Nc1ccccc1Cl [CBK265593],,104%
COc1cc(/C=C2\C=C(c3ccc(-c4ccccc4)cc3)OC2=O)ccc1O [CBK265594],,88.5%
Cc1cc2c(cc1C)NC(CC(=O)Nc1ccc(N(C)C)cc1)C(=O)N2 (centres unmarked) [CBK265595],,85.8%
COc1cc(/C=C2/SC(=S)N(CC(=O)O)C2=O)cc(Br)c1OCc1ccccn1 [CBK265598],,115%
Cc1cc(C)nc(NC(=O)C(C)Oc2ccc(Cl)cc2Cl)n1 (centres unmarked) [CBK265600],,90.4%
O=C1N/C(=C/c2cccs2)C(=O)N1Cc1ccccc1F [CBK265601],,109%
CC(C(=O)Nc1sc2c(c1C(=O)NCc1ccco1)CCCC2)N1C(=O)c2ccccc2C1=O (centres unmarked) [CBK265603],,86.6%
CCOc1ccccc1NC(=O)CCCN1C(=O)c2ccccc2C1=O [CBK265608],,107%
COc1ccc(-c2nnc(SCC(=O)Nc3ccccc3[N+](=O)[O-])n2C)cc1 [CBK265609],,103%
Cc1ccc(-c2csc3nc(SCC(=O)NCC4CCCO4)n(-c4ccccc4)c(=O)c23)cc1 (centres unmarked) [CBK265610],,82.6%
O=C(O)C1CC=C(Cl)CC1C(=O)Nc1ccc(Cl)cc1[N+](=O)[O-] (centres unmarked) [CBK265612],,101%
O=C(/C=C/c1ccco1)Nc1sc2c(c1C(=O)NCc1ccco1)CCC2 [CBK265616],,104%
O=C(Oc1ccc(N(C(=O)c2ccncc2)S(=O)(=O)c2cccs2)cc1)c1ccncc1 [CBK265619],,98.7%
Cc1cccc(C)c1NC(=O)CSc1nnc(-c2cccnc2)n1Cc1ccccc1 [CBK265620],,114%
O=C(CSCCO)Nc1cccc2ccccc12 [CBK265623],,85.4%
CCOC(=O)C1=C(C)NC(=S)NC1c1ccc(O)c(OCC)c1[N+](=O)[O-] (centres unmarked) [CBK265624],,102%

SMILES,"viability at 28.5 h, 10 µM (bulk resorufin, single well)","viability at 28.5 h, 10 µM"
COc1cccc(/C=C2/NC(=O)N(c3cccc(Cl)c3)C2=O)c1OCc1cccc(C(=O)O)c1 [CBK265626],,109%
C=CCn1c2ccccc2c2nnc(SCc3ccc([N+](=O)[O-])cc3)nc21 [CBK265630],,92.5%
COc1cc2c(cc1/C=C1/S/C(=N\c3ccccc3)N(CCCN3CCOCC3)C1=O)OCO2 [CBK265631],,78.7%
CCOC(=O)COc1ccc(/C=C2/SC(=S)N(c3cccc(C(=O)O)c3)C2=O)cc1 [CBK265632],,107%
NC(=O)c1ccccc1NC(=S)NC(=O)c1cc2ccccc2o1 [CBK265633],,81.3%
COc1ccc(-c2cc(=O)oc3cc(OCC(=O)c4cc5ccccc5o4)ccc23)cc1 [CBK265634],,97.7%
Cc1ccc(S(=O)(=O)N(C(=O)c2ccncc2)c2ccc(OC(=O)c3ccncc3)cc2)c(C)c1 [CBK265635],,104%
Cc1ccc(S(=O)(=O)c2cc3c(=O)n4ccccc4nc3n(CCN3CCOCC3)c2=N)cc1 [CBK265637],,80.3%
Cc1cc(Cl)ccc1NC(=O)COC(=O)c1ccccc1I [CBK265638],,89.6%
O=C(COc1ccc2c3c(c(=O)oc2c1)CCC3)Nc1ccc(S(=O)(=O)N2CCOCC2)cc1 [CBK265640],,82.4%
Cc1ccc(S(=O)(=O)N(C)c2c(C)ccc(S(=O)(=O)N3CCN(C)CC3)c2C)cc1 [CBK265642],,96.1%
COc1ccc(C(=O)NCC(O)CN2CCOCC2)cc1[N+](=O)[O-] (centres unmarked) [CBK265643],,105%
COc1cc(C2C3=C(CC(C)(C)CC3=O)Nc3ncnn32)cc(OC)c1OC (centres unmarked) [CBK265646],,86.2%
CCOc1ccc(-c2nn(-c3ccccc3)cc2/C=C2\SC(=S)N(CC(=O)O)C2=O)cc1F [CBK265647],,105%
N=C1NC(=O)C(CC(=O)Nc2ccc(SC(F)F)cc2)S1 (centres unmarked) [CBK265648],,91.1%
Cc1ccc(/C=C(\NC(=O)c2ccccc2)C(=O)N2CCCC2C(=O)O)cc1 (centres unmarked) [CBK265649],,87.6%
O=C(OCC=C=CSc1ccc([N+](=O)[O-])cc1)c1ccc(F)cc1 [CBK265650],,117%
CCn1c(COc2cccc3cccnc23)nnc1SCC(=O)c1ccc(F)cc1 [CBK265656],,86.8%
O=C(O)CCCn1c(-c2cccc([N+](=O)[O-])c2)nc(=S)c2c1CCCC2 [CBK265657],,101%
NS(=O)(=O)c1ccc(NC(=O)CSc2ccc3ccccc3n2)cc1 [CBK265663],,74.6%

SMILES,"viability at 28.5 h, 10 µM (bulk resorufin, single well)","viability at 28.5 h, 10 µM"
CCOC(=O)c1c(NC(=O)CSc2nnc3ccccn23)sc2c1CCC(C)C2 (centres unmarked) [CBK265668],,89%
Cc1ccc(C(=O)N/C(=C\c2ccc3c(c2)OCO3)C(=O)NCC(=O)O)cc1 [CBK265669],,109%
O=C(CN1C(=O)c2ccccc2C1=O)Nc1sc2c(c1C(=O)NCc1ccco1)CCCC2 [CBK265670],,87.9%
CC(CC(=O)O)CC(=O)Nc1ccccc1C(=O)O (centres unmarked) [CBK265671],,99.2%
O=C(CSc1nnc2scc(-c3ccccc3)n12)Nc1nsc(-c2ccccc2)n1 [CBK265672],,103%
Cc1cc2ccccc2n2c(SCC(=O)Nc3nsc(-c4ccccc4)n3)nnc12 [CBK265673],,116%
Cc1nc([N+](=O)[O-])c(N2CCN(Cc3ccccc3)CC2)n1Cc1ccccc1 [CBK265675],,88.7%
Cc1ccc(-n2ncc3c(NCCc4ccc(S(N)(=O)=O)cc4)ncnc32)c(C)c1 [CBK265676],,92.4%
O=C(OCC#CCSc1nnc(-c2ccncc2)o1)c1sc2ccccc2c1Cl [CBK265677],,94.6%
Cc1ccc2[nH]c(SCC(=O)Nc3cccc(NC(=O)C45CC6CC(CC(C6)C4)C5)c3)nc2c1 [CBK265679],,96.3%
O=C(CCc1ccccc1)Nc1cccc2nsnc12 [CBK265680],,85.3%
Cc1cc2ccccc2n2c(SCC(=O)NCCc3ccccc3)nnc12 [CBK265682],,111%
NS(=O)(=O)c1ccc(CCNC(=O)/C=C/c2ccc([N+](=O)[O-])cc2)cc1 [CBK265683],,110%
O=C(CSCc1nc(O)c2c3c(sc2n1)CCCC3)NC1CCCCC1 [CBK265684],,83.5%
CCc1nnc(SCc2ccc(CSc3nnc(CC)n3N)cc2)n1N [CBK265689],,106%
COc1cc(/C=C2/NC(=O)N(c3cccc(Cl)c3)C2=O)ccc1OCC(=O)Nc1ccc(F)cc1 [CBK265691],,93%
COC(=O)c1ccc(NC(=O)C2Cc3ccccc3CN2S(=O)(=O)c2cccs2)cc1 (centres unmarked) [CBK265693],,92.7%
NS(=O)(=O)c1ccc(CCNC(=O)COc2ccc(Cl)cc2Cl)cc1 [CBK265694],,90.2%
COc1cc(/C=C/C(=O)O)ccc1OCC(=O)Nc1ccccc1 [CBK265695],,101%

# From PMC12040169 (PLOS Biology, 2025)
